Assay results published in patent US20240217990A1 (Gilead Sciences, Inc., priority 2021, published 2024).
Each block holds one compound with its values, some of them ahead of it.

Legend:
TLR8 = molecular target: T1, TLR8 (Homo sapiens, UniProt Q9NR97); experiment: TLR8 human PBMC cell-based assay (antagonist, Compound A stimulated cytokine release); conditions: human PBMCs; TLR8 agonist Compound A 800 nM, 6 hours; cytokines (TNFa and IL 12p40) in supernatant; read-out: TLR-8 EC50
T1 construct: Human peripheral blood mononuclear cells (PBMCs) consist of lymphocytes, monocytes and dendritic cells that express TLR7, TLR8 and TLR9; endogenous in cells; host or cells: cryopreserved human PBMCs from healthy donors
T1 sequence (Q9NR97 27-1041): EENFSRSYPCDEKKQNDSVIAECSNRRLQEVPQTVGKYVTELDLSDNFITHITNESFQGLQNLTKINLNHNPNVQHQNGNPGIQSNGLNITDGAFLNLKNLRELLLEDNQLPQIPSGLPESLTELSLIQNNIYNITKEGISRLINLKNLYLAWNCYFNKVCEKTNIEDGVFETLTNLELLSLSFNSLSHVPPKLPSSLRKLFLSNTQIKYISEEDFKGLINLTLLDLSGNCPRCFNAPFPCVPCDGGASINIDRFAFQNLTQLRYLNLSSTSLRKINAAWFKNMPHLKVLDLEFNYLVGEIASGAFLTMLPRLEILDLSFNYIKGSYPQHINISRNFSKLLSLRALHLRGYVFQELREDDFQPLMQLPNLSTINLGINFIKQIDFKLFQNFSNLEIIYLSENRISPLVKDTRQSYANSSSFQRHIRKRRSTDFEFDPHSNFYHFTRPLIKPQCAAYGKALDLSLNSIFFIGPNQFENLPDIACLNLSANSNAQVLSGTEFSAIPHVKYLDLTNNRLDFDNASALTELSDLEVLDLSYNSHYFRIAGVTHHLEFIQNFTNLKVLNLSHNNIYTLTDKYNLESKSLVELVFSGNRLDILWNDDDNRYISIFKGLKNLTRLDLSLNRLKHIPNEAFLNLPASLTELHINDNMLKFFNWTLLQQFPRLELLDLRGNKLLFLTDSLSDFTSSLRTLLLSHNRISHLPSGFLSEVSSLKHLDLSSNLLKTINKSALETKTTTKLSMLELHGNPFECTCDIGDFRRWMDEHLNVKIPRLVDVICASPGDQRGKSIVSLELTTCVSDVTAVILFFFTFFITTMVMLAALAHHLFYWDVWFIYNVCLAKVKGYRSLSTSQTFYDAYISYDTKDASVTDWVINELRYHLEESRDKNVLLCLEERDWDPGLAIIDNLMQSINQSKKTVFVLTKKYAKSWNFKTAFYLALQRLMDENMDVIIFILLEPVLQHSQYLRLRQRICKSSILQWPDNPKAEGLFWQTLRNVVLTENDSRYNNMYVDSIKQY
From the text: (§1) Human peripheral blood mononuclear cells (PBMCs) consist of lymphocytes, monocytes and dendritic cells that express TLR7, TLR8 and TLR9. These cells respond to TLR7, TLR8 and TLR9 ligand stimulation and produce cytokines and chemokines in vitro and in vivo. Human PBMCs are therefore suitable to be used in a cell-based assay to assess the in vitro potency of a TLR 7, 8, and/or 9 antagonist. The result is expected to be more translatable to the pharmacodynamics response in vivo than cell line-based assays.
Cryopreserved human PBMCs from healthy donors were thawed and resuspended in RPMI-1640 media with L-glutamine (Corning) supplemented with 10% Fetal Bovine Serum (Hyclone) and 1X Penicillin-Streptomycin (Corning). After counting, the cell density was adjusted to 2 million cells/ml and incubated for 1 hour at 37° C., 5% CO2 for recovery. Following the recovery, the cells were plated by adding 50 μl per well (100,000 cells) to 384-well cell culture plates (Greiner) containing 250 nl of test antagonists in 100% DMSO per well, in a 10 points dose response in quadruplicates. PBMCs were incubated in the presence of antagonists for one hour at 37° C., 5% CO2 before being stimulated with TLR8 agonist. Compound A (Gilead Sciences, U.S. Pat. No. 10,285,990) was used as the TLR8 agonist at a final concentration of 800 nM. PBMCs were incubated in the presence of antagonist and the TLR8 agonist for an additional 6 hours at 37° C., 5% CO2. At the end of the incubation, the cell culture plates were centrifuged at 500 g for 5 min, and the cell culture supernatant was collected. The level of cytokines (TNFa and IL 12p40) in the supernatant was measured by electrochemiluminescence immunoassays (Mesoscale Discovery) following manufacturer's recommended protocols. The level of cytokine measured was plotted against the antagonist concentration and fitted to a sigmoidal function to determine the EC50, which are shown below in Table 11.

TLR7 = molecular target: T2, TLR7 (Homo sapiens, UniProt Q9NYK1); experiment: TLR7 human PBMC cell-based assay (antagonist, GS-986 stimulated cytokine release); conditions: human PBMCs; TLR7 agonist GS-986 400 nM, 6 hours; cytokines (IL-6 and IFNα) in supernatant; read-out: TLR-7 EC50
T2 construct: Human peripheral blood mononuclear cells (PBMCs) consist of lymphocytes, monocytes and dendritic cells that express TLR7, TLR8 and TLR9; endogenous in cells; host or cells: cryopreserved human PBMCs from healthy donors
T2 sequence (Q9NYK1 27-1049): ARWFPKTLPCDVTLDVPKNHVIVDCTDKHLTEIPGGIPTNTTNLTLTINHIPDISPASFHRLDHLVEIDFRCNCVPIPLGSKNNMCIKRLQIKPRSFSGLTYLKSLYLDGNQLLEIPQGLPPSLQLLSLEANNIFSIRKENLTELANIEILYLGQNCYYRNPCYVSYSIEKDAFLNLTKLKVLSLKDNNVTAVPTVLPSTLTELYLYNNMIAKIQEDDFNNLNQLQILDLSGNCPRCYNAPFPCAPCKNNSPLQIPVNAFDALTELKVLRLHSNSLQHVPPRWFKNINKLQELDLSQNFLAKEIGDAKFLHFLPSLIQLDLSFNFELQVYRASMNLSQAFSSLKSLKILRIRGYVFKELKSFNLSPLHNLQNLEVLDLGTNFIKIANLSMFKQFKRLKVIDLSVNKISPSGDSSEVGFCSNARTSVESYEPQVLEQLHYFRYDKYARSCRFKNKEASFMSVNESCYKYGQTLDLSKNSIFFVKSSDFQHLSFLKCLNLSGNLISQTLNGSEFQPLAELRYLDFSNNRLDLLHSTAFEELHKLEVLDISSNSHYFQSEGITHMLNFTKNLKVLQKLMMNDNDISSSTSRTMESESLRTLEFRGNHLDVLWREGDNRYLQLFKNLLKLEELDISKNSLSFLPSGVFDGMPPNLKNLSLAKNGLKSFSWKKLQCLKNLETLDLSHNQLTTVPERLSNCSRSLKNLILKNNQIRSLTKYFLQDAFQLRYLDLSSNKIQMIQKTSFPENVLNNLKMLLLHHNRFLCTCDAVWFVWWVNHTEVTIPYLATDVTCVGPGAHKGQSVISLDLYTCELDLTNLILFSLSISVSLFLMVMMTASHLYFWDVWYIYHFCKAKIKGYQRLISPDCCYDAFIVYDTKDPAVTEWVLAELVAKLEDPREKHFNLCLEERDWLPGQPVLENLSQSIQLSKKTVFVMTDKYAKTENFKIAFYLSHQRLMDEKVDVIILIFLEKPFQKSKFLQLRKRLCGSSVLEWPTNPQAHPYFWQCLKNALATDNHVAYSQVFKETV
From the text: as §1
Cryopreserved human PBMCs from healthy donors were thawed and resuspended in RPMI-1640 media with L-glutamine (Corning) supplemented with 10% Fetal Bovine Serum (Hyclone) and 1× Penicillin-Streptomycin (Corning). After counting, the cell density was adjusted to 2 million cells/ml and incubated for 1 hour at 37° C., 5% CO2 for recovery. Following the recovery, the cells were plated by adding 50 μl per well (100,000 cells) to 384-well cell culture plates (Greiner) containing 250 nl of test antagonists in 100% DMSO per well, in a 10 points dose response in quadruplicates. PBMCs were incubated in the presence of test antagonists for one hour at 37° C., 5% CO2 before being stimulated with a TLR7 or TLR9agonist. GS-986 (Gilead Sciences) was used as the TLR7 agonist at a final concentration of 400 nM. ODN-2216 (InvivoGen) was used as the TLR9 agonist at a final concentration of 3 μM. PBMCs were incubated in the presence of the test antagonist and the TLR7 (or TLR9) agonist for an additional 6 hours at 37° C., 5% CO2. At the end of the incubation, the cell culture plates were centrifuged at 500 g for 5 min, and the cell culture supernatant was collected. The level of cytokines (IL-6 and IFNα) in the supernatant was measured by electrochemiluminescence immunoassays (Mesoscale Discovery) following manufacturer's recommended protocols. The level of cytokine measured was plotted against the test antagonist concentration and fitted to a sigmoidal function to determine the EC50, which are shown below in Table 11.

SMILES: Cc1cc(-c2[nH]c3cc(C4CC5CCCC(C4)N5CC(N)=O)sc3c2C(C)C)cn2ncnc12 (stereo not shown) [Example 302]
EC50 (TLR8): 54 nM | EC50 (TLR7): 11.9 nM

SMILES: Cc1cc(-c2[nH]c3cc(C(=O)N(C)[C@@H]4CCNC[C@H]4F)sc3c2C(C)C)cn2ncnc12 [Example 76]
EC50 (TLR8): 6.5 nM | EC50 (TLR7): 0.6 nM

SMILES: Cc1cc(-c2[nH]c3cc(C(=O)N4C5CNCC4C5)sc3c2C(C)C)cc(C)n1 [Example 19]
EC50 (TLR8): 53.7 nM | EC50 (TLR7): 77.7 nM

SMILES: Cc1cc(-c2[nH]c3cc(C(=O)N4CCN[C@H](c5ccccc5)C4)sc3c2C(C)C)cn2ncnc12 [Example 129]
EC50 (TLR8): 2.2 nM | EC50 (TLR7): 18.1 nM

SMILES: Cc1cc(-c2[nH]c3cc(C(=O)N(C)C4CCC(N5CC(F)(F)C5)CC4)sc3c2C(C)C)cn2ncnc12 (stereo not shown) [Example 246, N-(4-(3,3-difluoroazetidin-1-yl)cyclohexyl)-6-isopropyl-N-methyl-5-(8-methyl-[1,2,4]triazolo[1,5-a]pyridin-6-yl)-4H-thieno[3,2-b]pyrrole-2-carboxamide]
EC50 (TLR8): 191 nM | EC50 (TLR7): 53.4 nM

SMILES: Cc1c(-c2[nH]c3cc(C(=O)N(C)C4CCN(C)CC4)sc3c2C(C)C)cn2ncnc2c1C [Example 151]
EC50 (TLR8): 0.6 nM | EC50 (TLR7): 0.8 nM

SMILES: Cc1cc(-c2[nH]c3cc(C4CCC5(CC4)CN(C(=O)[C@@H]4CCCN4C)C5)sc3c2C(C)C)cn2ncnc12 [Example 206]
EC50 (TLR8): 15.4 nM | EC50 (TLR7): 0.3 nM

SMILES: Cc1cc(-c2[nH]c3cc(C(=O)N(C)C4CCNCC4(C)C)sc3c2C(C)C)cn2ncnc12 (stereo not shown) [Example 92]
EC50 (TLR8): 23.1 nM | EC50 (TLR7): 0.2 nM

SMILES: Cc1cc(-c2[nH]c3cc(C(=O)N(C)[C@H]4CCNCC4(F)F)sc3c2C(C)C)cn2ncnc12 [Example 81]
EC50 (TLR8): 91 nM | EC50 (TLR7): 10.3 nM

Other lines, results leading:

EC50 (TLR8): 3.1 nM | EC50 (TLR7): 0.4 nM
SMILES: Cc1cc(N2CCNCC2)ncc1-c1cc2[nH]c(-c3cc(C)c4ncnn4c3)c(C(C)C)c2s1 [Example 216]

EC50 (TLR8): 1.7 nM | EC50 (TLR7): 15.4 nM
SMILES: Cc1cc(-c2[nH]c3cc(-c4ccc5c(c4)CNC5)sc3c2C(C)C)cn2ncnc12 [Example 209, 2-(isoindolin-5-yl)-6-isopropyl-5-(8-methyl-[1,2,4]triazolo[1,5-a]pyridin-6-yl)-4H-thieno[3,2-b]pyrrole]

EC50 (TLR8): 1.1 nM | EC50 (TLR7): 1.9 nM
SMILES: CN[C@@H]1CCN(C(=O)c2cc3[nH]c(-c4cc(C)c5ncnn5c4)c(C(C)C)c3s2)C1 [Example 72]

EC50 (TLR8): 33.1 nM | EC50 (TLR7): 333 nM
SMILES: CCc1c(-c2cc(C)c3ncnn3c2)[nH]c2cc(-c3nc4ccc(N5CCNCC5)nc4[nH]3)sc12 [Example 244, 6-ethyl-5-(8-methyl-[1,2,4]triazolo[1,5-a]pyridin-6-yl)-2-(5-(piperazin-1-yl)-311-imidazo[4,5-b]pyridin-2-yl)-4H-thieno[3,2-b]pyrrole]

EC50 (TLR8): 26.2 nM | EC50 (TLR7): 2.5 nM
SMILES: Cc1cc(-c2[nH]c3cc(C(=O)N4CCC5CCNCC54)sc3c2C(C)C)cn2ncnc12 (stereo not shown) [Example 89]

EC50 (TLR8): 3.46 nM | EC50 (TLR7): 0.28 nM
SMILES: Cc1cc(-c2[nH]c3cc(C4CC5(CCNCC5)C4)sc3c2C(C)C)cn2ncnc12 [Example 308]

EC50 (TLR8): 6 nM | EC50 (TLR7): 13.5 nM
SMILES: Cc1cc(-c2[nH]c3cc(-c4cnn(C5CCN(CC(N)=O)CC5)c4)sc3c2C(C)C)cn2ncnc12 [Example 172]

EC50 (TLR8): 8.2 nM | EC50 (TLR7): 1.7 nM
SMILES: Cc1cc(-c2[nH]c3cc(CN4CCN(C)CC4)sc3c2C(C)C)cn2ncnc12 [Example 265, 6-isopropyl-5-(8-methyl-[1,2,4]triazolo[1,5-a]pyridin-6-yl)-2-((4-methylpiperazin-1-yl)methyl)-4H-thieno[3,2-b]pyrrole]

EC50 (TLR8): 10.2 nM | EC50 (TLR7): 0.5 nM
SMILES: Cc1cc(-c2[nH]c3cc(C(=O)N(C)C4CCNCC4)sc3c2C(C)C)cn2ncnc12 [Example 56, 6-isopropyl-N-methyl-5-(8-methyl-[1,2,4]triazolo[1,5-a]pyridin-6-yl)-N-(4-piperidyl)-4H-thieno[3,2-b]pyrrole-2-carboxamide]

EC50 (TLR8): 5.4 nM | EC50 (TLR7): 1 nM
SMILES: Cc1cc(-c2[nH]c3cc(-c4nnc(C5CCNCC5)s4)sc3c2C(C)C)cn2ncnc12 [Example 48, 6-isopropyl-5-(8-methyl-[1,2,4]triazolo[1,5-a]pyridin-6-yl)-2-(5-(piperidin-4-yl)-1,3,4-thiadiazol-2-yl)-4H-thieno[3,2-b]pyrrole]

EC50 (TLR8): 0.3 nM | EC50 (TLR7): 1.3 nM
SMILES: Cc1cc(-c2[nH]c3cc(-c4ccc5c(c4)CN(CCO)CC5)sc3c2C(C)C)cn2ncnc12 [Example 188]
